# Experimental data reported in patent US8039617B2, “Method for producing alpha form crystals of sapropterin hydrochloride” (Shiratori Pharmaceutical Co., Ltd., priority 2005, dated 2011).
# Where a name gives a salt, the structure may show the parent alone.
# Key:
# [1] = moisture absorption during storage; type: physicochemical; conditions: for color change due to moisture absorption: hydrochloride
# Protocol: With regard to moisture absorption, α form crystal undergoes increase in weight by moisture absorption of 0.85 to 2% during storage for 14 days under the conditions of 25° C. and at relative humidity of 20 to 75%. […] On the other hand, weight of the β form crystal gradually increases under the conditions of 25° C. and a relative humidity of 60%, and weight increase is 3.5% at 18 hours and the increase continues to the maximum of 3.9%. From this, α form crystal is more moisture-stable than β form. […] Accordingly, α form crystal is suitable for storage.
# [2] = type: physicochemical
# Protocol: Furthermore, in differential thermal analysis, α form crystal has only one endothermic peak near the 250° C. as shown in FIG. 5 while β form crystal has two endothermic peaks near 180° C. and near 230° C. as shown in FIG. 6.
Compound,"course of weight increase over storage ([1]; 25° C., relative humidity of 20 to 75%, day 1 to day 14)",color change due to moisture absorption [1],endothermic peak in differential thermal analysis (thermal stability) [2] [°C],"weight increase by moisture absorption ([1]; 25° C., relative humidity of 60%, at 18 hours) [%]","maximum weight increase by moisture absorption ([1]; 25° C., relative humidity of 60%, maximum) [%]"
"C[C@H](O)[C@H](O)[C@H]1CNc2nc(N)[nH]c(=O)c2N1 [α form crystal, sapropterin hydrochloride]",stable from day 1 to day 14,does not change its color,~250,–,–
"C[C@H](O)[C@H](O)[C@H]1CNc2nc(N)[nH]c(=O)c2N1 [β form crystal, sapropterin hydrochloride]",–,changes the color from white to pale yellow,–,3.5,3.9
